Data as given in patent US8273780B2, “Polycyclic antagonists of lysophosphatidic acid receptors” (Amira Pharmaceuticals, Inc., priority 2009, dated 2012).

What was measured:
[1] = molecular target: T1, Human LPA3 (Homo sapiens, UniProt Q9UBY5); assay: LPA3 calcium flux assay; assay type: cell-based; conditions: CHO cells expressing human LPA3, 10 nM LPA; read-out: HLPA3 Ca Flux IC50
T1 construct: The full-length cDNA fragment for human LPA3 was obtained by PCR from the vector; expressed in transfected cells; cDNA from the Missouri S&T cDNA Resource Center
T1 sequence (Q9UBY5 1-353): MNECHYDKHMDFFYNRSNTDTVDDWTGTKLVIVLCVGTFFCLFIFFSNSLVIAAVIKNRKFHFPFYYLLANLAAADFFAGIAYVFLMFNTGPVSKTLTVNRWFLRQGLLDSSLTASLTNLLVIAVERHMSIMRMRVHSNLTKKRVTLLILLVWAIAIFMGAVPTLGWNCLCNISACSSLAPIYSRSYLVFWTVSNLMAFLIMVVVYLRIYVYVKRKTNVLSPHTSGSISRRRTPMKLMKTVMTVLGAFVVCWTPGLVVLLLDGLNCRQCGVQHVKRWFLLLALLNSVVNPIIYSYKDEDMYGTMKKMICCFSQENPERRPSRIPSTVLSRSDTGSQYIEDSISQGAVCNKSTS
Experimental: A vector containing the human LPA3 receptor cDNA was obtained from the Missouri S&T cDNA Resource Center (www.cdna.org). The full-length cDNA fragment for human LPA3 was obtained by PCR from the vector. The nucleotide sequence of the cloned human LPA3 was determined by sequencing and confirmed to be identical to the published human LPA3 sequence (NCBI accession number NM_012152). The cDNA was cloned into the pcDNA5/FRT expression plasmid and transfected in CHO cells using lipofectamine 2000 (Invitrogen Corp., USA). Clones stably expressing human LPA3 were selected using hygromycin and identified as cells that show Ca-influx in response to LPA.
(§1) Human LPA1 or LPA3 expressing CHO cells are seeded at 20,000-45,000 cells per well in a 96-well poly-D-lysine coated plate one or two days before the assay. Prior to the assay, the cells are washed once with PBS and then cultured in serum-free media overnight. On the day of the assay, a calcium indicator dye (Calcium 4, Molecular Devices) in assay buffer (HBSS with Ca^2+and Mg^2+ and containing 20 mM Hepes and 0.3% fatty-acid free human serum albumin) is added to each well and incubation continued for 1 hour at 37° C. 10 μl of test compounds in 2.5% DMSO are added to the cells and incubation continued at room temperature for 30 minutes. Cells are the stimulated by the addition of 10 nM LPA and intracellular Ca^2+ measured using the Flexstation 3 (Molecular Devices). IC50s are determined using Graphpad prism analysis of drug titration curves.

[2] = molecular target: T2, Human LPA1 (Homo sapiens, UniProt Q92633); assay: LPA1 calcium flux assay; assay type: cell-based; conditions: CHO cells expressing human LPA1, 10 nM LPA; read-out: HLPA1 Ca Flux IC50
T2 construct: the full-length cDNA for human LPA1 was obtained by PCR of the reverse transcription reaction; expressed in transfected cells
Experimental: A 1.1 kb cDNA encoding the human LPA1 receptor was cloned from human lung. Human lung RNA (Clontech Laboratories, Inc. USA) was reverse transcribed using the RETROscript kit (Ambion, Inc.) and the full-length cDNA for human LPA1 was obtained by PCR of the reverse transcription reaction. The nucleotide sequence of the cloned human LPA1 was determined by sequencing and confirmed to be identical to the published human LPA1 sequence (An et al. Biochem. Biophys. Res. Commun. 231:619 (1997). The cDNA was cloned into the pcDNA5/FRT expression plasmid and transfected in CHO cells using lipofectamine 2000 (Invitrogen Corp., USA). Clones stably expressing human LPA1 were selected using hygromycin and identified as cells that show Ca-influx in response to LPA.
as §1

T2 sequence (Q92633 whole entry): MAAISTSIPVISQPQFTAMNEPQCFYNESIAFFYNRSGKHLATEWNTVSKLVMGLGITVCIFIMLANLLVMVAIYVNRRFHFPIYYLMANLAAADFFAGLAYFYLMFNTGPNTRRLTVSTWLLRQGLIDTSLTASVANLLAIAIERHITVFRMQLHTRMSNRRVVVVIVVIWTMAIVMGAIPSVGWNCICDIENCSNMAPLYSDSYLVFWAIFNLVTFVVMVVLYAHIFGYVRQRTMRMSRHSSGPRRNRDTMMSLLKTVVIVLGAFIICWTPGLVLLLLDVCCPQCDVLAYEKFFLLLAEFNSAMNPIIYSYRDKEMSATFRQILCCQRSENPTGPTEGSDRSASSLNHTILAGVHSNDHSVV

IC50 [1] [nM]	IC50 [2] [nM]	SMILES
300 to 1000	< 300	Cc1noc(-c2ccc(-c3ccc(C4(C(=O)O)CC4)cc3)cc2)c1NC(=O)OC(C)c1cccc(Cl)c1 (centres unmarked) [Compound 26, 1-(4′-{4-[1-(3-Chloro-phenyl)-ethoxycarbonylamino]-3-methyl-isoxazol-5-yl}-biphenyl-4-yl)-cyclopropanecarboxylic acid]
	1000 to 10000	Cc1noc(-c2ccc(-c3ccc(C4(C(=O)O)CC4)cc3)cc2)c1NC(=O)OC(C)c1ccc(C(F)(F)F)cc1 (single isomer, unassigned) [Compound 13, 1-(4′-{3-Methyl-4-[1-(4-trifluoromethyl-phenyl)-ethoxycarbonylamino]-isoxazol-5-yl}-biphenyl-4-yl)-cyclopropanecarboxylic acid]
< 300	< 300	COc1cc(-c2ccc(C3(C(=O)O)CC3)cc2)ccc1-c1onc(C)c1NC(=O)O[C@H](C)c1cccc(C(F)(F)F)c1 [Compound 31, 1-(3′-Methoxy-4′-{3-methyl-4-[(R)-1-(3-trifluoromethyl-phenyl)-ethoxycarbonylamino]-isoxazol-5-yl}-biphenyl-4-yl)-cyclopropanecarboxylic acid]
1000 to 10000	< 300	Cc1noc(-c2ccc(-c3ccc(C4(C(=O)O)CC4)cc3)cc2)c1NC(=O)O[C@H](C)c1ccccc1C(F)(F)F [Compound 9, 1-(4′-{3-Methyl-4-[(R)-1-(2-trifluoromethyl-phenyl)-ethoxycarbonylamino]-isoxazol-5-yl}-biphenyl-4-yl)-cyclopropanecarboxylic acid]
< 300	< 300	CCc1noc(-c2ccc(-c3ccc(C4(C(=O)O)CC4)cc3)cc2)c1NC(=O)O[C@H](C)c1cccc(C(F)(F)F)c1 [Compound 30, 1-(4′-{3-Ethyl-4-[(R)-1-(3-trifluoromethyl-phenyl)-ethoxycarbonylamino]-isoxazol-5-yl}-biphenyl-4-yl)-cyclopropanecarboxylic acid]
> 10000	1000 to 10000	Cc1noc(-c2ccc(-c3ccc(C4(C#N)CC4)cc3)cc2)c1NC(=O)O[C@H](C)c1ccccc1 [Compound 37, {5-[4′-(1-Cyano-cyclopropyl)-biphenyl-4-yl]-3-methyl-isoxazol-4-yl}-carbamic acid (R)-1-phenyl-ethyl ester]
> 10000	< 300	Cc1noc(-c2ccc(-c3ccc(C4(C(=O)O)CC4)cc3)cc2)c1NC(=O)O[C@H](C)C1CC1 (single isomer, unassigned) [Compound 6]
1000 to 10000	< 300	Cc1noc(-c2ccc(-c3ccc(C4(C(=O)O)CC4)cc3)cc2)c1NC(=O)OC(C)c1ccc(C(F)(F)F)cc1 (single isomer, unassigned) [Compound 14, 1-(4′-{3-Methyl-4-[1-(4-trifluoromethyl-phenyl)-ethoxycarbonylamino]-isoxazol-5-yl}-biphenyl-4-yl)-cyclopropanecarboxylic acid]
	< 300	COc1ccccc1C(C)OC(=O)Nc1c(C)noc1-c1ccc(-c2ccc(C3(C(=O)O)CC3)cc2)cc1 (centres unmarked) [Compound 12, 1-(4′-{4-[1-(2-Methoxy-phenyl)-ethoxycarbonylamino]-3-methyl-isoxazol-5-yl}-biphenyl-4-yl)-cyclopropanecarboxylic acid]
> 10000	< 300	Cc1noc(-c2ccc(-c3ccc(C4(C(=O)O)CC4)cc3)cc2)c1NC(=O)OCC1CC1 [Compound 7, 1-[4′-(4-Cyclopropylmethoxycarbonylamino-3-methyl-isoxazol-5-yl)-biphenyl-4-yl]-cyclopropanecarboxylic acid]
300 to 1000	< 300	Cc1ccccc1[C@@H](C)OC(=O)Nc1c(C)noc1-c1ccc(-c2ccc(C3(C(=O)O)CC3)cc2)cc1 [Compound 3, 1-{4′-[3-Methyl-4-((R)-1-o-tolyl-ethoxycarbonylamino)-isoxazol-5-yl]-biphenyl-4-yl}-cyclopropanecarboxylic acid]
300 to 1000	< 300	Cc1noc(-c2ccc(-c3ccc(C4(C(=O)NS(C)(=O)=O)CC4)cc3)cc2)c1NC(=O)O[C@H](C)c1cccc(C(F)(F)F)c1 [Compound 40, {5-[4′-(1-Methanesulfonylaminocarbonyl-cyclopropyl)-biphenyl-4-yl]-3-methyl-isoxazol-4-yl}-carbamic acid (R)-1-(3-trifluoromethyl-phenyl)-ethyl ester]
1000 to 10000	< 300	Cc1noc(-c2ccc(-c3ccc(C4(C(=O)O)CC4)cc3)cc2)c1NC(=O)O[C@H](C)C1CCC1 [Compound 20, 1-{4′-[4-((R)-1-Cyclobutyl-ethoxycarbonylamino)-3-methyl-isoxazol-5-yl]-biphenyl-4-yl}-cyclopropanecarboxylic acid]
> 10000	< 300	COc1ccc([C@@H](C)OC(=O)Nc2c(C)noc2-c2ccc(-c3ccc(C4(C(=O)O)CC4)cc3)cc2)cc1 [Compound 24, 1-(4′-{4-[(R)-1-(4-Methoxy-phenyl)-ethoxycarbonylamino]-3-methyl-isoxazol-5-yl}-biphenyl-4-yl)-cyclopropanecarboxylic acid]
1000 to 10000	< 300	Cc1noc(-c2ccc(-c3ccc(C4(C(=O)O)CC4)cc3)cc2)c1NC(=O)OC(C)c1cccc(C#N)c1 (centres unmarked) [Compound 15, 1-(4′-{4-[1-(3-Cyano-phenyl)-ethoxycarbonylamino]-3-methyl-isoxazol-5-yl}-biphenyl-4-yl)-cyclopropanecarboxylic acid]
< 300	< 300	Cc1noc(-c2ccc(-c3ccc(C4(C(=O)O)CC4)cc3)cc2)c1NC(=O)O[C@H](C)c1cccc(C(F)(F)F)c1 [Compound 22, 1-(4′-{3-Methyl-4-[(R)-1-(3-trifluoromethyl-phenyl)-ethoxycarbonylamino]-isoxazol-5-yl}-biphenyl-4-yl)-cyclopropanecarboxylic acid]
	1000 to 10000	Cc1noc(-c2ccc(-c3ccc(C4(C(=O)O)CC4)cc3)cc2)c1NC(=O)O[C@@H](C)C1CC1 (single isomer, unassigned) [Compound 5]
1000 to 10000	< 300	Cc1noc(-c2ccc(-c3ccc(C4(C(=O)O)CC4)cc3)cc2)c1NC(=O)OC(C)c1ccccc1 (racemic) [Compound 34, 1-{4′-[3-Methyl-4-(1-phenyl-ethoxycarbonylamino)-isoxazol-5-yl]-biphenyl-4-yl}-cyclopropanecarboxylic acid]
300 to 1000	< 300	Cc1noc(-c2ccc(-c3ccc(C4(C(=O)O)CC4)cc3)cc2)c1NC(=O)OC(C)c1cccc(Br)c1 (centres unmarked) [Compound 25, 1-(4′-{4-[1-(3-Bromo-phenyl)-ethoxycarbonylamino]-3-methyl-isoxazol-5-yl}-biphenyl-4-yl)-cyclopropanecarboxylic acid]
1000 to 10000	< 300	COc1cccc([C@@H](C)OC(=O)Nc2c(C)noc2-c2ccc(-c3ccc(C4(C(=O)O)CC4)cc3)cc2)c1 [Compound 23, 1-(4′-{4-[(R)-1-(3-Methoxy-phenyl)-ethoxycarbonylamino]-3-methyl-isoxazol-5-yl}-biphenyl-4-yl)-cyclopropanecarboxylic acid]
1000 to 10000	< 300	C[C@@H](OC(=O)Nc1cnoc1-c1ccc(-c2ccc(C3(C(=O)O)CC3)cc2)cc1)c1ccccc1 [Compound 33, 1-{4′-[4-((R)-1-Phenyl-ethoxycarbonylamino)-isoxazol-5-yl]-biphenyl-4-yl}-cyclopropanecarboxylic acid]
> 10000	< 300	Cc1noc(-c2ccc(-c3ccc(C4(C(=O)O)CC4)cc3)cc2)c1NC(=O)OC(C)c1cccc(O)c1 (centres unmarked) [Compound 28, 1-(4′-{4-[1-(3-Hydroxy-phenyl)-ethoxycarbonylamino]-3-methyl-isoxazol-5-yl}-biphenyl-4-yl)-cyclopropanecarboxylic acid]
